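Method: 48-hour compound exposure of cells in 96-well plates, five concentrations, linear interpolation of endpoints. GI50 is the concentration that inhibits growth by half. TGI denotes the concentration required for complete inhibition of growth.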
Columns and labels:
Assay in all cases: DTP human tumour cell line panel, 48 h
NCI-H23 lung = system: NCI-H23 lung
OVCAR-5 ovarian = system: OVCAR-5 ovarian
SF-295 CNS = system: SF-295 CNS
NCI-H226 lung = system: NCI-H226 lung
HT29 colon = system: HT29 colon
SN12C renal = system: SN12C renal
OVCAR-3 ovarian = system: OVCAR-3 ovarian
SNB-19 CNS = system: SNB-19 CNS
RPMI-8226 leukemia = system: RPMI-8226 leukemia
BT-549 breast = system: BT-549 breast

Row | SMILES | TGI (NCI-H23 lung) [µM] | TGI (OVCAR-5 ovarian) [µM] | TGI (SF-295 CNS) [µM] | TGI (NCI-H226 lung) [µM] | TGI (HT29 colon) [µM] | TGI (SN12C renal) [µM] | TGI (OVCAR-3 ovarian) [µM] | TGI (SNB-19 CNS) [µM] | TGI (RPMI-8226 leukemia) [µM] | TGI (BT-549 breast) [µM] | GI50 (OVCAR-5 ovarian) [µM] | GI50 (SF-295 CNS) [µM] | GI50 (NCI-H226 lung) [µM] | GI50 (HT29 colon) [µM] | GI50 (SN12C renal) [µM] | GI50 (OVCAR-3 ovarian) [µM] | GI50 (SNB-19 CNS) [µM] | GI50 (RPMI-8226 leukemia) [µM] | GI50 (BT-549 breast) [µM] | GI50 (NCI-H23 lung) [µM]
1 | COc1cc(C(C)c2cc3c(cc2OCCNC(=O)COc2cc4c(cc2C(C)c2cc(OC)c(OC)c(OC)c2)OCO4)OCO3)cc(OC)c1OC (stereo unspecified) | > 100 | > 100 | > 100 | > 100 | > 100 | > 100 | > 100 | > 100 | – | – | – | – | – | – | – | – | – | – | – | –
2 | COC(=O)C(=O)C(C(=O)C(=O)Nc1ccccc1OC)c1nc2ccc([N+](=O)[O-])cc2[nH]c1=O (stereo unspecified) | – | > 100 | > 100 | > 100 | > 100 | > 100 | > 100 | > 100 | > 100 | > 100 | – | – | – | – | – | – | – | – | – | –
3 | CCn1c2c(c3ccccc31)[C@@H](c1ccc(Cl)cc1)CC1C(=O)N(c3ccccc3)C(=O)C21 (stereo partly specified) | > 100 | > 100 | > 100 | > 100 | > 100 | > 100 | > 100 | > 100 | > 100 | – | – | – | – | – | – | – | – | – | – | –
4 | CC(=O)NNc1nc(C)c(C(=O)/C=C/c2ccc(Cl)cc2)s1 | > 100 | > 100 | > 100 | – | > 100 | – | > 100 | > 100 | > 100 | – | – | – | – | – | – | – | – | – | – | –
5 | Cc1nc(N)nc(N)c1CCCc1ccccc1 | > 100 | > 100 | > 100 | > 100 | > 100 | 51.9 | > 100 | > 100 | > 100 | – | – | – | – | – | – | – | – | – | – | –
6 | Cc1ccc(S(=O)(=O)OC(COC(=O)c2ccccc2)C(OS(=O)(=O)c2ccc(C)cc2)C(OS(=O)(=O)c2ccc(C)cc2)C(COC(=O)c2ccccc2)OS(=O)(=O)c2ccc(C)cc2)cc1 (stereo unspecified) | > 100 | – | > 100 | – | > 100 | > 100 | > 100 | > 100 | > 100 | – | – | – | – | – | – | – | – | – | – | –
7 | Cc1ccc2nc3cc(C)c(=O)cc-3sc2c1 | > 100 | > 100 | > 100 | > 100 | > 100 | > 100 | > 100 | > 100 | – | – | – | – | – | – | – | – | – | – | – | –
8 | Cc1cccc(C)c1N1C(=O)C(=O)C(c2nc3ccccc3s2)/C(=N/NC(=O)c2ccccc2O)C1=O (stereo unspecified) | 39.1 | > 100 | > 100 | 56.5 | > 100 | > 100 | > 100 | > 79.8 | > 69.2 | – | – | – | – | – | – | – | – | – | – | –
9 | Cc1ccc(S(=O)(=O)c2ccc(C)cc2[N+](=O)[O-])cc1 | > 100 | > 100 | > 100 | > 100 | > 100 | > 100 | > 100 | > 100 | > 100 | – | – | – | – | – | – | – | – | – | – | –
10 | CC(C(=O)c1ccccc1)C1(O)C(=O)Nc2ccc(Cl)cc21 (stereo unspecified) | > 100 | > 100 | > 100 | > 100 | > 100 | > 100 | > 100 | > 100 | > 100 | – | – | – | – | – | – | – | – | – | – | –
11 | COc1cc(NS(C)(=O)=O)ccc1NCc1c2ccccc2nc2ccccc12 | > 100 | > 100 | > 100 | > 100 | > 100 | > 100 | > 100 | > 100 | 71.1 | – | – | – | – | – | – | – | – | – | – | –
12 | Cc1nc2ccccn2c1NC(=O)NNC(=S)Nc1ccc(F)cc1 | – | > 100 | > 100 | > 100 | > 100 | > 100 | > 100 | > 100 | > 100 | > 100 | > 100 | > 100 | > 100 | > 100 | > 100 | > 100 | > 100 | > 100 | > 100 | –
13 | CC(=O)OC12c3ccccc3-c3ccccc3C1C(C(=O)O)C2C(=O)O (stereo unspecified) | > 10 | > 10 | > 10 | > 10 | > 10 | > 10 | > 10 | > 10 | > 10 | – | – | – | – | – | – | – | – | – | – | –
14 | CCOC(=O)C(Cc1ccccc1)NC(=O)c1[nH]cnc1/N=N/N(C)C (stereo unspecified) | > 100 | > 100 | > 100 | > 100 | > 100 | > 100 | > 100 | > 100 | > 100 | – | – | – | – | – | – | – | – | – | – | –
15 | C/C(CC(=O)Nc1ccccc1C)=N/NS(=O)(=O)c1ccc(C)cc1 | > 100 | > 100 | > 100 | > 100 | > 100 | – | > 100 | – | > 100 | – | – | – | – | – | – | – | – | – | – | –
16 | COc1ccc2c(c1)NC1(O)c3ccccc3C(=O)C21O (stereo unspecified) | > 100 | – | > 100 | > 100 | > 100 | > 100 | > 100 | > 100 | > 100 | – | – | – | – | – | – | – | – | – | – | –
17 | O=S(=O)(N=NC=C1c2ccccc2N(O)c2ccccc21)c1ccc(Cl)cc1 | > 100 | > 100 | > 100 | > 100 | > 100 | > 100 | > 100 | > 100 | > 100 | – | – | – | – | – | – | – | – | – | – | –
18 | CN(C)CCCC1(c2ccc(F)cc2)OCc2cc(-c3cc4ccccc4s3)ccc21 (stereo unspecified) | 3.34 | 2.92 | 3.6 | – | 3.11 | 2.94 | 3.19 | 3.13 | – | 3.89 | 1.58 | 1.91 | – | 1.67 | 1.57 | 1.67 | 1.72 | – | 2.03 | 1.76
19 | Cc1ccc(S(=O)(=O)C2=c3nc4ccccc4cc3=C3C(=O)c4ccccc4C(=O)C32)cc1 (stereo unspecified) | > 100 | > 100 | – | > 100 | – | > 100 | > 100 | > 100 | > 100 | – | – | – | – | – | – | – | – | – | – | –
20 | C=CCC1(C(=O)OC(C)(C)C)C(OC)=C(C(=O)OC(C)(C)C)C2C1C(C(=O)OC(C)(C)C)=C(OC)C2(CC=C)C(=O)OC(C)(C)C (stereo unspecified) | > 100 | > 100 | > 100 | > 100 | – | > 100 | > 100 | > 100 | > 100 | – | – | – | – | – | – | – | – | – | – | –
21 | C1CN(P2(N3CC3)=NP(N3CC3)(N3CC3)=NP(N3CC3)(N3CC3)=N2)CCO1 (stereo unspecified) | > 100 | > 100 | > 100 | > 100 | > 100 | > 100 | > 100 | > 100 | > 100 | – | – | – | – | – | – | – | – | – | – | –
22 | CCOC(=O)C1=C(C)N(NC(N)=O)C2(N)N(NC(N)=O)C(C)=C(C(=O)OCC)C12C(=O)OCC (stereo unspecified) | – | > 100 | > 100 | > 100 | > 100 | > 100 | > 100 | > 100 | > 100 | – | – | – | – | – | – | – | – | – | – | –
